For two compounds, IC50 and stability results are on record in patent US20100204343A1, “3-(4-HYDROXY-3-METHOXYPHENYL)-1-(4-HYDROXYPHENYL)-1-PROPANONE AND ITS USE AS ANTIOXIDANT” (SYMRISE GmbH & Co. KG, priority 2007, published 2010).

Converted amounts (≈) assume the structure as drawn.

Series [1] can be described thus: ABTS assay, antioxidant capacity (cell free in vitro test). It counts as biochemical. Conditions: ABTS discolouration measured photometrically at 734 nm; 96-well plates, 5 concentrations. The protocol: The antioxidant capacity of 3-(4-hydroxy-3-methoxyphenyl)-1-(4-hydroxyphenyl)-1-propanone of formula (I) disclosed here was evaluated with the ABTS assay, a cell free in vitro test. The assay principle bases on the chemical reduction being accompanied by discolouration of the green coloured cationic radical 2,2′-Azinobis(3-ethylbenzothiazoline 6-sulfonic acid) (ABTS^+) by antioxidants. The grade of discolouration can be measured photometrically at 734 nm. The compound of formula (I) as well as standard antioxidants like Trolox, a water soluble alpha-tocopherol analog and green tea extract were tested on 96-well microtiter plates at 5 concentrations. Each concentration was tested in double in two independent experiments. IC50 values for the compound of formula (I) as well as for the comparative examples are depicted in table 1.
Therefore, the compound of formula (I) is a highly suitable new product either to protect biological systems from damage caused by free radicals of different type and origin or to extend the shelf life of products comprising highly unstable, easily oxidising molecules.

Series [2] can be described thus: Stability studies. Format: physicochemical. Conditions: in contrast to common antioxidants like Trolox, alpha-tocopherol or green tea extract.

A word on the IC50: it is the concentration needed to halve the response being measured. Low values mean greater potency, high ones weaker potency. On to `COc1cc(CCC(=O)c2ccc(O)cc2)ccc1O` [3-(4-hydroxy-3-methoxyphenyl)-1-(4-hydroxyphenyl)-1-propanone], for which, in series [1], the IC50 was determined as 5 µg/mL (≈ 18.4 µM). Besides, the stability result in series [2] was “highly stable”. In turn, `Cc1c(C)c2c(c(C)c1O)CCC(C)(C(=O)O)O2` (stereo not drawn) [Trolox, 6-hydroxy-2,5,7,8-tetramethylchroman-2-carboxylic acid, reference compound] gave an IC50 in series [1] of 6 µg/mL (≈ 24 µM).
